Results reported in patent publication US9371317B2, “Sweet flavor modifier” (SENOMYX, INC., priority 2013, dated 2016).

Tests used:
human panelists [1] = assay: Sweetness threshold: paired comparison taste test, LSB+compound at pH 7.1 vs. 1% sucrose; assay type: in vivo; conditions: 25 ppm compound in LSB
Protocol: (§1) Test samples containing experimental compounds are presented in pairs to the panelist and they are asked to determine which of the sample is sweeter. […] A group of 10 to 16 or more panelists participated in each test. Subjects refrained from eating or drinking (except water) for at least 1 hour prior to the test. Subjects rinsed with water several times to clean the mouth.
(§2) Taste tests were performed with sucrose or HFCS as the sweetener in the presence or absence of compound. A 0.2% stock solution of compound in water with sodium bicarbonate was prepared and then this stock solution was diluted in the final sample to achieve the targeted final concentration of compound. Taste samples were also prepared in a low sodium phosphate buffer (pH 7.1; “LSB”) lacking sucrose or HFCS to evaluate the taste of the compound alone. Low sodium phosphate buffer consists of 0.3 mM KCl, 0.5 mM Na2HPO4, and 0.175 mM KH2PO4. Sample volumes are usually 20 ml.
(§3) In one paired comparison test, the panelist is presented with two different samples and asked to identify the sample which is sweeter. The samples within a paired comparison test are presented in a randomized, counterbalanced order. Panelists have up to a 1 minute delay between taste tests to clear the mouth of any tastes. […]

human panelists [2] = assay: Enhancement of sucrose at pH 7.1: paired comparison taste test, 6% sucrose+compound vs. 10%, 11% or 12% sucrose; assay type: in vivo; conditions: 10 ppm compound in 6% sucrose
Protocol: as §1, §2, §3

human panelists [3] = assay: Enhancement of sucrose at pH 2.8: paired comparison taste test, 6% sucrose+compound vs. 10%, 11% or 12% sucrose; assay type: in vivo
Protocol: as §1, §2, §3

human panelists [4] = assay: Enhancement of HFCS at pH 2.8: paired comparison taste test, 6% HFCS+compound vs. 8% or 9% HFCS; assay type: in vivo; conditions: 20 ppm compound in 6% HFCS
Protocol: as §1, §2, §3

Row | Structure (SMILES) | melting point [°C] | Sweetness of compound alone vs. 1% sucrose (human panelists [1]) | Sucrose equivalence of 6% sucrose + compound (human panelists [2]) | Sucrose equivalence of 6% sucrose + compound (human panelists [3]; 5 ppm compound in 6% sucrose) | Sucrose equivalence of 6% sucrose + compound (human panelists [3]; 10 ppm compound in 6% sucrose) | HFCS equivalence of 6% HFCS + compound (human panelists [4])
1 | Cc1cc(C(=O)NC(C)(C)COc2cccc3c2C(N)=NS(=O)(=O)N3)ccn1 [Example 2, N-(1-((4-amino-2,2-dioxide-1H-benzo[c][1,2,6]thiadiazin-5-yl)oxy)-2-methylpropan-2-yl)-2-methylisonicotinamide] | 238 to 240 | – | – | – | – | –
2 | NC1=NS(=O)(=O)Nc2cccc(OCC3(NC(=O)c4ccncc4)CCCC3)c21 [Example 9, N-(1-(((4-amino-2,2-dioxido-1H-benzo[c][1,2,6]thiadiazin-5-yl)oxy)methyl)cyclopentyl)isonicotinamide] | > 250 | – | – | – | – | –
3 | CC(C)(COc1cccc2c1C(N)=NS(=O)(=O)N2)NC(=O)c1ccncc1 [Compound A1, N-(1-(4-amino-2,2-dioxide-1H-benzo[c][1,2,6]thiadiazin-5-yloxy)-2-methylpropan-2-yl)isonicotinamide] | 235 to 238 | 25 ppm equivalent to 1% sucrose | 10 ppm in 6% sucrose is equivalent to 10% sucrose | 5 ppm in 6% sucrose is equivalent to 11% sucrose | 10 ppm in 6% sucrose is equivalent to 12% sucrose | 20 ppm in 6% HFCS is equivalent to 9% HFCS
